Experiments:
[1] = target: T1, recombinant human β-secretase (rhBACE-1) (Homo sapiens, UniProt P56817); assay: Measurement of 50% inhibition concentration (IC50) of β-secretase (BACE-1) enzyme, fluorescent substrate peptide; format: biochemical; settings: rhBACE-1, pH 4.5, 37° C., 2.5 hr
T1 construct: purchased Invitrogen
Experimental: Compounds were dissolved in 0.1 M sodium acetate buffer (with 150 mM sodium chloride, pH 4.5) and 10% dimethylsulfoxide (DMSO). The solution with no compound was used as a negative control. Then, 15 μL of these solutions (final compound concentration: 0.3, 0.9, 3.0, 9.0, and 30.0 μM), 1 unit/mL of recombinant human β-secretase (rhBACE-1, Invitrogen), and 15 μL of the fluorescent substrate peptide were mixed in a black 384-well microtiter plate (Coaster). After mixtures were incubated in the dark at 37° C. for 2.5 hr, the fluorescence intensities of the mixtures were measured by fluorescence microplate reader (Wallac) at 545 nm for excitation and at 590 nm for emission. The inhibition ratio of each compound was calculated using the intensity of the solution without any compound as a negative control. The sequence of the peptide was Ser-Glu-Val-Asn-Leu-Asp-Ala-Glu-Lys-Arg, and labeled with fluorescent donor (Cy3) at Ser-1 and with quencher (Cy5Q) at Lys-9, respectively (Invitrogen) Inhibitory activities of each compound are shown in FIG. 1.

[2] = test system: Aβ-40 and Aβ-42 production; assay: Inhibitory effect on Aβ-40 and Aβ-42 production in rat primary cultured cell (Aβ ELISA of culture medium); format: cell-based; settings: 72 hr, rat cerebral cortex primary culture
Experimental: Cerebral cortex was obtained from 19-20 day-old embryonic Wistar rat. The tissue was minced, dissociated using scalpel blades and Pasteur pipette in Hunks buffered solution, and centrifuged at 100 rpm. Precipitated cells were filtered using […] cell strainer, and single cells were prepared. These cells were suspended in Eagle's Minimum Essential Medium (EMEM) containing 10% Fetal bovine serum, and plated into 48-well tissue culture plates (Becton Dickinson) at 200 μL/well and 1.7×10^5 cells/cm^2. Cultures were incubated at 37° C. in a humidified atmosphere of 5% CO2. After 3, 5, and 7 days in culture, the medium was replaced, and after 9 days, CU532 was dissolved in DMSO and diluted in culture media so that the final concentration of DMSO in culture media was 0.1%, and each solution was added to each well at […] for 72 hr. The control solution contained 0.1% DMSO.
After 72 hr, Aβ-40 and Aβ-42 in culture media were measured using by Aβ ELISA kit (Wako). 100 μL of the culture medium and standard diluents were added to the antibody-coated plate, and incubated at 4° C. over night. Then the plate was washed by wash buffer 5 times and 100 μL of HRP-labeled detection antibody solution was added to the plate. After 1 hour, the plate was washed 5 times, and TMB chromogenic reagent was added to the plate. After 30 minute, stop solution was added and absorbance at 450 nm of the solution was measured by microplate reader (BIORAD). The concentration of Aβ in culture medium was calculated from the standard curve.

T1 sequence (P56817 46-501): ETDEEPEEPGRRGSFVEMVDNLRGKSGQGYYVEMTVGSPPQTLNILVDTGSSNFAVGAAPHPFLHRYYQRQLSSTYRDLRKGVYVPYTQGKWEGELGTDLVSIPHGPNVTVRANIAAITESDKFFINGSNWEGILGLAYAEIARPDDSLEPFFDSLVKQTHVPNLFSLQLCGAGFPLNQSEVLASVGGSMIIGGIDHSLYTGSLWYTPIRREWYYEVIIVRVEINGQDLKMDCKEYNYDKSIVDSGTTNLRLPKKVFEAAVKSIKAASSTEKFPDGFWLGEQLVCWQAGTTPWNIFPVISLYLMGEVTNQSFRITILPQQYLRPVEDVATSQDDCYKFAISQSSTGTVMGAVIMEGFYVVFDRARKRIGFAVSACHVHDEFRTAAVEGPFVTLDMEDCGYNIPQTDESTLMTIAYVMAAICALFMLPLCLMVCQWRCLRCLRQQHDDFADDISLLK

Row | Structure (SMILES) | melting point | other results
1 | O=C(/C=C/c1ccc(O)cc1)CC(=O)/C=C/c1cc(OCc2ccccc2)ccc1[N+](=O)[O-] [CU475, (1E,6E)-1-(5-benzyloxy-2-nitrophenyl)-7-(4-hydroxyphenyl)hepta-1,6-diene-3,5-dione] | 168 to 172 °C | IC50 [1]: 0.74 µM
2 | O=C(/C=C/c1ccc(O)cc1)CC(=O)/C=C/c1cc(O)ccc1[N+](=O)[O-] [CU131, (1E,6E)-1-(5-hydroxy-2-nitrophenyl)-7-(4-hydroxyphenyl)hepta-1,6-diene-3,5-dione] | 187 to 194 °C | IC50 [1]: 0.91 µM
3 | Nc1ccc(OCc2ccccc2)cc1/C=C/C(=O)CC(=O)/C=C/c1ccc(O)cc1 [CU489, (1E,6E)-1-(2-amino-5-benzyloxyphenyl)-7-(4-hydroxyphenyl)hepta-1,6-diene-3,5-dione] | 175 to 179 °C | IC50 [1]: 5.6 µM
4 | COc1cc(/C=C/C(=O)CC(=O)/C=C/c2ccc(O)c(OC)c2)ccc1O [curcumin, reference compound] | – | inhibitory effect on Aβ production [2]: no inhibitory effect
5 | COc1cc(/C=C/C(=O)CC(=O)/C=C/c2ccc(O)cc2)ccc1[N+](=O)[O-] [CU050, (1E,6E)-1-(4-hydroxyphenyl)-7-(3-methoxy-4-nitrophenyl)hepta-1,6-diene-3,5-dione] | 190 to 192 °C | IC50 [1]: 16 µM
6 | COc1ccc([N+](=O)[O-])c(/C=C/C(=O)CC(=O)/C=C/c2ccc(O)cc2)c1 [CU481, (1E,6E)-1-(4-hydroxyphenyl)-7-(5-methoxy-2-nitrophenyl)hepta-1,6-diene-3,5-dione] | 151 to 155 °C | IC50 [1]: 1.2 µM
7 | O=C(/C=C/c1ccc(O)cc1)CC(=O)/C=C/c1cc(O)ccc1Br [CU532, (1E,6E)-1-(2-bromo-5-hydroxyphenyl)-7-(4-hydroxyphenyl)hepta-1,6-diene-3,5-dione] | 182 to 186 °C | amount of Aβ-42 in culture medium ([2]; at 0.3 μM): significantly decreased; amount of Aβ-40 in culture medium ([2]; at 1 μM): significantly decreased
8 | O=C(/C=C/c1ccc(O)cc1)CC(=O)/C=C/c1cc(F)ccc1-c1ccccc1 [CU640, (1E,6E)-1-(4-fluorobiphenyl-2-yl)-7-(4-hydroxyphenyl)hepta-1,6-diene-3,5-dione] | 187 to 191 °C | –
9 | CN(C)CCOc1ccc(Br)c(/C=C/C(=O)CC(=O)/C=C/c2ccc(O)cc2)c1 [CU552, (1E,6E)-1-[2-bromo-5-(2-dimethylaminoethoxy)phenyl]-7-(4-hydroxyphenyl)hepta-1,6-diene-3,5-dione] | 163 to 167 °C | –
10 | O=C(/C=C/c1ccc(O)cc1)CC(=O)/C=C/c1cc(O)ccc1-c1ccccc1 [CU526, (1E,6E)-1-(4-hydroxybiphenyl-2-yl)-7-(4-hydroxyphenyl)hepta-1,6-diene-3,5-dione] | 179 to 186 °C | –
11 | O=C(/C=C/c1ccc(O)cc1)CC(=O)/C=C/c1ccccc1C(F)(F)F [CU467, (1E,6E)-1-(4-hydroxyphenyl)-7-(2-trifluoromethylphenyl)hepta-1,6-diene-3,5-dione] | 181 to 185 °C | –
12 | COCOc1ccc([N+](=O)[O-])c(/C=C/C(=O)CC(=O)/C=C/c2ccc(O)cc2)c1 [CU649, (1E,6E)-1-(4-hydroxyphenyl)-7-[5-(methoxymethoxy)-2-nitrophenyl]hepta-1,6-diene-3,5-dione] | 175 to 180 °C | –
13 | O=C(/C=C/c1ccc(O)cc1)CC(=O)/C=C/c1ccc(O)cc1Cl [CU127, (1E,6E)-1-(2-chloro-4-hydroxyphenyl)-7-(4-hydroxyphenyl)hepta-1,6-diene-3,5-dione] | 131 to 138 °C | –
14 | O=C(/C=C/c1ccc(O)cc1Cl)CC(=O)/C=C/c1ccc(O)cc1Cl [CU362, (1E,6E)-1,7-bis(2-chloro-4-hydroxyphenyl)hepta-1,6-diene-3,5-dione] | 248 to 254 °C | –
15 | CN(C)c1ccc(/C=C/C(=O)CC(=O)/C=C/c2ccc(N(C)C)cc2[N+](=O)[O-])c([N+](=O)[O-])c1 | 245 to 250 °C | –
16 | COc1cc(O)ccc1/C=C/C(=O)CC(=O)/C=C/c1cc(O)ccc1-c1ccccc1 [CU582, (1E,6E)-1-(4-hydroxybiphenyl-2-yl)-7-(4-hydroxy-2-methoxyphenyl)hepta-1,6-diene-3,5-dione] | 108 to 114 °C | –
17 | CN(C)c1ccc(/C=C/C(=O)CC(=O)/C=C/c2cc(O)ccc2Br)c(Cl)c1 [CU609, (1E,6E)-1-(2-bromo-5-hydroxyphenyl)-7-(2-chloro-4-dimethylaminophenyl)hepta-1,6-diene-3,5-dione] | 209 to 214 °C | –
18 | O=C(/C=C/c1ccc(O)cc1)CC(=O)/C=C/c1ccccc1C=Cc1ccccc1 [CU672, (1E,6E)-1-(4-hydroxyphenyl)-7-(2-styrylphenyl)hepta-1,6-diene-3,5-dione] | 119 to 128 °C | –
19 | CN(C)c1ccc(/C=C/C(=O)CC(=O)/C=C/c2ccc(O)cc2)c(C(F)(F)F)c1 [CU555, (1E,6E)-1-(4-dimethylamino-2-trifluoromethylphenyl)-7-(4-hydroxyphenyl)hepta-1,6-diene-3,5-dione] | 195 to 199 °C | –
20 | COc1cc(O)ccc1/C=C/C(=O)CC(=O)/C=C/c1cc(O)ccc1[N+](=O)[O-] [CU585, (1E,6E)-1-(4-hydroxy-2-methoxyphenyl)-7-(5-hydroxy-2-nitrophenyl)hepta-1,6-diene-3,5-dione] | 119 to 123 °C | –
21 | CN(C)c1ccc(/C=C/C(=O)CC(=O)/C=C/c2ccc3cc[nH]c3c2)c(Cl)c1 [CU584, (1E,6E)-1-(2-chloro-4-dimethylaminophenyl)-7-(1H-indol-6-yl)hepta-1,6-diene-3,5-dione] | 180 to 185 °C | –
22 | COc1cc(O)ccc1/C=C/C(=O)CC(=O)/C=C/c1ccc(N(C)C)cc1[N+](=O)[O-] [CU603, (1E,6E)-1-(4-dimethylamino-2-nitrophenyl)-7-(4-hydroxy-2-methoxyphenyl)hepta-1,6-diene-3,5-dione] | 223 to 226 °C | –
23 | CCN(CC)c1ccc(/C=C/C(=O)CC(=O)/C=C/c2ccc(N(CC)CC)cc2OC(=O)c2ccccc2)c(OC(=O)c2ccccc2)c1 [CU427, (1E,6E)-1,7-bis(2-benzoyloxy-4-diethylaminophenyl)hepta-1,6-diene-3,5-dione] | 192 to 196 °C | –
24 | O=C(/C=C/c1ccc(O)cc1)CC(=O)/C=C/c1cc(Cl)ccc1-c1ccccc1 [CU641, (1E,6E)-1-(4-chlorobiphenyl-2-yl)-7-(4-hydroxyphenyl)hepta-1,6-diene-3,5-dione] | 193 to 196 °C | –
25 | CS(=O)(=O)Oc1ccccc1/C=C/C(=O)CC(=O)/C=C/c1ccc(O)cc1 [CU483, (1E,6E)-1-(4-hydroxyphenyl)-7-[2-(methylsulfonyloxy)phenyl]hepta-1,6-diene-3,5-dione] | 163 to 167 °C | –
26 | Nc1ccc(O)cc1/C=C/C(=O)CC(=O)/C=C/c1ccc(O)cc1 [CU488, (1E,6E)-1-(2-amino-5-hydroxyphenyl)-7-(4-hydroxyphenyl)hepta-1,6-diene-3,5-dione] | 186 to 192 °C | IC50 [1]: 7.3 µM
27 | CCOC(=O)Cn1nncc1-c1ccccc1/C=C/C(=O)CC(=O)/C=C/c1ccc(O)cc1 [CU647, (1E,6E)-1-[2-(1-ethoxycarbonylmethyl-1H-1,2,3-triazol-5-yl)phenyl]-7-(4-hydroxyphenyl)hepta-1,6-diene-3,5-dione] | 169 to 174 °C | –
28 | O=C(/C=C/c1ccc2cc[nH]c2c1)CC(=O)/C=C/c1cc(O)ccc1[N+](=O)[O-] [CU596, (1E,6E)-1-(5-hydroxy-2-nitrophenyl)-7-(1H-indol-6-yl)hepta-1,6-diene-3,5-dione] | 204 to 207 °C | –
29 | O=C(/C=C/c1cc(O)ccc1[N+](=O)[O-])CC(=O)CCc1ccc(O)cc1 [CU530, (E)-1-(5-hydroxy-2-nitrophenyl)-7-(4-hydroxyphenyl)hept-1-ene-3,5-dione] | 62 to 70 °C | –
